This passage reports inhibition and IC50 results from publication PMC3726612, “Amiodarone Inhibits Apamin-Sensitive Potassium Currents” (PLoS ONE, 2013).

Type in all cases: cell-based
Experiment [1] deals with T1, human small conductance Ca^2+-activated K^+ channel, subfamily N, member 2 (SK2) (Homo sapiens, UniProt Q9H2S1).
T1 construct: gene KCNN2; transcript variant 1 (NM_021614.2)
The experiment can be described thus: whole-cell patch clamp, HEK-293 cells expressing SK2; % inhibition at […]. Particulars: HEK293. (The patch-clamp technique gives a direct electrical read-out from membranes.)

The target of experiment [2] is T1, human small conductance Ca^2+-activated K^+ channel, subfamily N, member 2 (SK2). Briefly: whole-cell patch clamp, HEK-293 cells transiently expressing SK2; % inhibition at […]. Conditions: HEK293.
Experiment [3] has the same target. Briefly: whole-cell patch clamp, HEK-293 cells expressing SK2; % inhibition at […]. Conditions: HEK293; read-out: % inhibition at 500 nM.
Experiment [4] has the same target. Briefly: whole-cell patch clamp, HEK-293 cells transiently expressing SK2.

T1 sequence (Q9H2S1 whole entry): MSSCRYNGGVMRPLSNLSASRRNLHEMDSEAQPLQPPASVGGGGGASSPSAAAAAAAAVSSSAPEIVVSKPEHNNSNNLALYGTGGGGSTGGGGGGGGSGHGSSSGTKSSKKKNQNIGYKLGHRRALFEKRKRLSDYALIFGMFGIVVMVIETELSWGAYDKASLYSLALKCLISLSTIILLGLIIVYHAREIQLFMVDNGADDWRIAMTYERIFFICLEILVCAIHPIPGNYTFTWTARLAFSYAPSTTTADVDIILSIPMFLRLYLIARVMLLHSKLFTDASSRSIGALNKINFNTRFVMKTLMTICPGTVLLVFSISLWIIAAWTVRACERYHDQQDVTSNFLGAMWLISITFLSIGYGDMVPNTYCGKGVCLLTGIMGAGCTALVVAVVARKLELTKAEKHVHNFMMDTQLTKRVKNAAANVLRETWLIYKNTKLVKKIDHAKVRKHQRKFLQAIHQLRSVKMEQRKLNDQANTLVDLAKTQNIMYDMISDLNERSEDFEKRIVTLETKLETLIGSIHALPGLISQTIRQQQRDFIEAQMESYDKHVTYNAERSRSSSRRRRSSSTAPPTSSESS

As a reminder, the inhibition is the change of the read-out against control, counted positive when it falls. In the case of `CCS(=O)(=O)N(C)[C@H]1c2cc(C#N)ccc2OC(C)(C)[C@@H]1O` (racemic) [chromanol 293B], in experiment [1], the inhibition at 100 µM came to 38.2 ± 15%.

Molecule `CCCCc1oc2ccccc2c1C(=O)c1cc(I)c(OCCNCC)c(I)c1` [DEA, desethylamiodarone] came in with an inhibition at 20 µM in experiment [2] of 79%.

For `Cc1cccc(CCN2CCC(C(=O)c3ccc(NS(C)(=O)=O)cc3)CC2)n1` [E-4031], the inhibition at 0.5 µM in experiment [3] turned out to be 37.6 ± 14.9%.

The term IC50 denotes the midpoint of a concentration-inhibition curve. Read a high IC50 as a need for much substance. In experiment [4], `CCCCc1oc2ccccc2c1C(=O)c1cc(I)c(OCCN(CC)CC)c(I)c1` [amiodarone] came in with an IC50 of 2670 ± 250 nM.
